Measured values reported in US4440784A, “Anti-inflammatory, analgesic, and antipyretic pharmaceutical composition” (Kanegafuchi Chemical Industry Company, Ltd., priority 1981, dated 1984).
Where two headings read alike, the source gives them in different places.

Key:
[1] = test system: acetic acid-induced writhing in mice; experiment: acetic acid-induced writhing in mice (analgesic activity); type: in vivo, male ddY strain mice; details: po
Description: An analgesic activity was evaluated by the method of acetic acid-induced writhing in mice [R. Koster et al., Federation Proc., 18, 412 (1959)]. Ten male ddY strain mice weighing 20~25 g were used in each group. Test compounds suspended in 2.5% acacia were administered p.o. to the mice. One hour later, the mice were injected i.p. with 0.6% acetic acid in a volume of 0.1 ml/10 g body weight. The number of writhes in each of mice was counted for 20 minutes after the injection of the acetic acid. Percent inhibition was calculated by the following equation. [formula]

[2] = test system: carrageenan-induced paw edema in rats; experiment: carrageenan-induced paw edema in rats (acute anti-inflammatory activity); type: in vivo, male Wistar strain rats; details: po; for inhibition in vivo at 50 mg/kg / inhibition in vivo at 100 mg/kg: rat, p.o.; for inhibition in vivo at 5 mg/kg: Rattus norvegicus
Description: (1) An acute anti-inflammatory activity was evaluated by the method of carrageenan-induced paw edema in rats [C. A. Winter et al., Proc. Soc. […] Six male Wistar strain rats weighing 150~180 g were used in each group. […] The volume of each paw edema was measured 3 and 5 hours after the injection of carrageenan. Percent edema inhibition was calculated by the following equation. [formula]

[3] = test system: yeast-induced fever in rats; experiment: yeast-induced fever in rats (antipyretic activity); type: in vivo, male Wistar strain rats; details: po; for inhibition in vivo at 100 mg/kg / inhibition in vivo at 50 mg/kg: rat, p.o.; for inhibition in vivo at 5 mg/kg: Rattus norvegicus
Description: Five male Wistar strain rats weighing 150~180 g were used in each group. A 20% Baker's yeast suspension in 0.9% NaCl was injected s.c. into the dorsal region of rats in a volume of 1 ml/100 g body weight. […] The rectal temperature was determined with a thermometer, 1, 3 and 5 hours after the administration of test compounds. Percent inhibition was calculated by the following equation. [formula]

[4] = toxicity test in mice (LD50); details: in vivo, po; mouse, 14 days observation
Description: Female ICR strain mice weighing 20~25 g in groups of six each were used for toxicity tests. Test compounds suspended in 2.5% acacia were administered p.o. to the mice. The animals were observed daily for 14 days after the administration. The LD50 values were estimated from mortality (No. of dead mice/No. of mice used).

[5] = test system: paper disk-induced granuloma in rats; experiment: paper disk-induced granuloma in rats (sub-chronic anti-inflammatory activity); type: in vivo, male Wistar strain rats; details: rat, p.o. once daily for 7 days
Description: Six male Wistar strain rats weighing 150~180 g were used in each group. Each paper disk (29±1 mg) was implanted s.c. into the bilateral area of the scapula of rats under anesthesia with amobarbital sodium. […] The rats were killed on day 7, at which time the paper disks with surrounding granulomatous tissues were removed and dried to constant weight overnight, and weighed. Percent inhibition was calculated by the following equation. [formula]

[6] = test system: adjuvant-induced arthritis in rats; experiment: adjuvant-induced arthritis in rats (chronic anti-inflammatory activity); type: in vivo, male Sprague-Dawley strain rats; details: rat, p.o. once daily
Description: (3) A chronic anti-inflammatory activity was evaluated by the method of adjuvant-induced arthritis in rats [D. T. Walz et al., J. Pharmacol. and Exp. Ther., 178, 223 (1971)]. Eight male Sprague-Dawley strain rats weighing 190~230 g were used in each group. Into the left hind paw of rats was injected i.d. 0.5 mg of Mycobacterium butyricum suspended in 0.05 ml of paraffin oil. Test compounds suspended in 2.5% acacia were administered p.o. once daily for 21 days, starting on the day of the injection of an adjuvant (day 0). Paw volumes of adjuvant-injected and uninjected feet were measured on day 14 and on day 21. Percent inhibition was calculated by the following equation. [formula]

[7] = Mus musculus, read-out: Inhibition (writhing)
[8] = 3 hours after carrageenan, read-out: Percent edema inhibition, 3 hours
[9] = 5 hours after carrageenan, read-out: Percent edema inhibition, 5 hours
[10] = mouse, p.o., 100 mg/kg, 1 hour before acetic acid i.p., read-out: Inhibition (writhing)
[11] = 1 hour after administration, read-out: Inhibition (fever), 1 hour
[12] = 3 hours after administration, read-out: Inhibition (fever), 3 hours
[13] = 5 hours after administration, read-out: Inhibition (fever), 5 hours

| SMILES | inhibition in vivo at 50 mg/kg [2, 8] | inhibition in vivo at 50 mg/kg [2, 9] | inhibition in vivo at 100 mg/kg [1, 10] | inhibition in vivo at 100 mg/kg [3, 11] | inhibition in vivo at 100 mg/kg [3, 12] | inhibition in vivo at 100 mg/kg [3, 13] | LD50 at 336 h [4] | other results |
| --- | --- | --- | --- | --- | --- | --- | --- | --- |
| CC(=O)Oc1ccccc1C(=O)O [Aspirin, reference compound] |  |  |  |  |  |  |  | inhibition in vivo at 100 mg/kg [1, 7]: 38% |
| CC(C)(C)c1cc(C=C(CCO)C(=O)O)cc(C(C)(C)C)c1O [Compound I, β-Carboxy-β-(2-hydroxyethyl)-3,5-di-tert-butyl-4-hydroxystyrene] | 44.6% | 41.6% | 74.5% | 53.1% | 98.9% | 70.3% | > 1000 mg/kg |  |
| COC(=O)C(=Cc1cc(C(C)(C)C)c(O)c(C(C)(C)C)c1)CCO [Compound II, β-Methoxycarbonyl-β-(2-hydroxyethyl)-3,5-di-tert-butyl-4-hydroxystyrene] | 52.1% | 41.7% | 79.8% | 42.5% | 64.5% | 59.7% | > 1000 mg/kg |  |
| CCC(=Cc1cc(C(C)(C)C)c(O)c(C(C)(C)C)c1)C(=O)O [Compound III, β-Carboxy-β-ethyl-3,5-di-tert-butyl-4-hydroxystyrene] | 12.1% | 18.3% | 28.2% | 14.6% | 31.8% | 19.5% | > 1000 mg/kg |  |
| CCOC(=O)C(=Cc1cc(C(C)(C)C)c(O)c(C(C)(C)C)c1)C(C)=O [Compound IV, β-Ethoxycarbonyl-β-acetyl-3,5-di-tert-butyl-4-hydroxystyrene] | 30.3% | 28.4% | 56.9% | 23% | 40.9% | 41.6% | > 1000 mg/kg |  |
| CC(C)(C)c1cc(C=C(C#N)C(N)=O)cc(C(C)(C)C)c1O [Compound IX, β-Carbamoyl-β-cyano-3,5-di-tert-butyl-4-hydroxystyrene] | 40.8% | 34.2% | 50.7% | 35.4% | 77.3% | 87% | > 1000 mg/kg | Inhibition (granuloma) ([5]; 25 mg/kg/day): 27.0%; Inhibition (granuloma) ([5]; 100 mg/kg/day): 25.0%; Inhibition, injected foot, Day 14 ([6]; 12.5 mg/kg/day): 33.3%; Inhibition, injected foot, Day 21 ([6]; 12.5 mg/kg/day): 46.1%; Inhibition, uninjected foot, Day 14 ([6]; 12.5 mg/kg/day): 70.3%; Inhibition, uninjected foot, Day 21 ([6]; 12.5 mg/kg/day): 42.6%; Inhibition, injected foot, Day 14 ([6]; 50 mg/kg/day): 31.6%; Inhibition, injected foot, Day 21 ([6]; 50 mg/kg/day): 29.6%; Inhibition, uninjected foot, Day 14 ([6]; 50 mg/kg/day): 40.5%; Inhibition, uninjected foot, Day 21 ([6]; 50 mg/kg/day): 42.6% |
| CC(=O)C(C)=Cc1cc(C(C)(C)C)c(O)c(C(C)(C)C)c1 [Compound VI, β-Acetyl-β-methyl-3,5-di-tert-butyl-4-hydroxystyrene] | 32.5% | 20.7% | 47.8% | 38.1% | 45.5% | 41.6% | > 1000 mg/kg |  |
| CC(C)(C)c1cc(C=CC(=O)c2ccccc2)cc(C(C)(C)C)c1O [Compound VII, β-Benzoyl-3,5-di-tert-butyl-4-hydroxystyrene] | 16.9% | 19.7% | 33% | 15.9% | 27.7% | 21.4% | > 1000 mg/kg |  |
| CC(C)(C)c1cc(C=CC(N)=O)cc(C(C)(C)C)c1O [Compound VIII, β-Carbamoyl-3,5-di-tert-butyl-4-hydroxystyrene] | 17.6% | 14.6% | 25.8% | 19.9% | 25.9% | 16.9% | > 1000 mg/kg |  |
| CC(C)(C)c1cc(C=C[N+](=O)[O-])cc(C(C)(C)C)c1O [Compound X, β-Nitro-3,5-di-tert-butyl-4-hydroxystyrene] | 11% | 17.3% |  | 18.6% | 30.5% | 23.4% | > 1000 mg/kg | inhibition in vivo at 100 mg/kg [1, 7]: 24.4% |
| CC(C)(C)c1cc(C=C(C#N)S(C)(=O)=O)cc(C(C)(C)C)c1O [Compound XI, β-Methylsulfonyl-β-cyano-3,5-di-tert-butyl-4-hydroxystyrene] | 35.1% | 18.3% |  |  |  |  | 250 to 500 mg/kg | inhibition in vivo at 50 mg/kg ([1]; mouse, p.o., 50 mg/kg, 1 hour before acetic acid i.p.): 31.6%; inhibition in vivo at 50 mg/kg [3, 11]: 23.2%; inhibition in vivo at 50 mg/kg [3, 12]: 31.2%; inhibition in vivo at 50 mg/kg [3, 13]: 19.9% |
| CC(C)Cc1ccc(C(C)C(=O)O)cc1 (centres unmarked) [Ibuprofen, reference compound] |  |  |  |  |  |  |  | Inhibition, injected foot, Day 14 ([6]; 12.5 mg/kg/day): -2.6%; Inhibition, injected foot, Day 21 ([6]; 12.5 mg/kg/day): -17.4%; Inhibition, uninjected foot, Day 14 ([6]; 12.5 mg/kg/day): 13.5%; Inhibition, uninjected foot, Day 21 ([6]; 12.5 mg/kg/day): -7.4%; Inhibition, injected foot, Day 14 ([6]; 50 mg/kg/day): -1.7%; Inhibition, injected foot, Day 21 ([6]; 50 mg/kg/day): 28.7%; Inhibition, uninjected foot, Day 14 ([6]; 50 mg/kg/day): 32.4%; Inhibition, uninjected foot, Day 21 ([6]; 50 mg/kg/day): 44.4% |
| COc1ccc2c(c1)c(CC(=O)O)c(C)n2C(=O)c1ccc(Cl)cc1 [Indomethacin, reference compound] |  |  |  |  |  |  |  | inhibition in vivo at 5 mg/kg ([2]; 3 h, read-out: Percent edema inhibition, 3 hours): 32.8%; inhibition in vivo at 5 mg/kg ([2]; 5 h, read-out: Percent edema inhibition, 5 hours): 39.2%; Inhibition (granuloma) ([5]; 1.25 mg/kg/day): 14.0%; Inhibition (granuloma) ([5]; 5 mg/kg/day): 25.5%; inhibition in vivo at 5 mg/kg [1, 7]: 62.7%; inhibition in vivo at 5 mg/kg ([3]; 1 h, read-out: Inhibition (fever), 1 hour): 35.4%; inhibition in vivo at 5 mg/kg ([3]; 3 h, read-out: Inhibition (fever), 3 hours): 56.4%; inhibition in vivo at 5 mg/kg ([3]; 5 h, read-out: Inhibition (fever), 5 hours): 66.2% |
| CCCCC1C(=O)N(c2ccccc2)N(c2ccccc2)C1=O [Phenylbutazone, reference compound] |  |  |  |  |  |  |  | inhibition in vivo at 100 mg/kg [2, 8]: 23.6%; inhibition in vivo at 100 mg/kg [2, 9]: 28.9%; Inhibition (granuloma) ([5]; 25 mg/kg/day): 5.6%; Inhibition (granuloma) ([5]; 100 mg/kg/day): 24.2% |
